Positions count from the first letter of the chain named.

Holding throughout (type): cell-based
The target in test [1] is T1, hCTR F356A (Homo sapiens, UniProt P30988, F356A).
T1 construct: c-Myc (N); expressed in transfected cells
T1 sequence (P30988 25-474 F356A): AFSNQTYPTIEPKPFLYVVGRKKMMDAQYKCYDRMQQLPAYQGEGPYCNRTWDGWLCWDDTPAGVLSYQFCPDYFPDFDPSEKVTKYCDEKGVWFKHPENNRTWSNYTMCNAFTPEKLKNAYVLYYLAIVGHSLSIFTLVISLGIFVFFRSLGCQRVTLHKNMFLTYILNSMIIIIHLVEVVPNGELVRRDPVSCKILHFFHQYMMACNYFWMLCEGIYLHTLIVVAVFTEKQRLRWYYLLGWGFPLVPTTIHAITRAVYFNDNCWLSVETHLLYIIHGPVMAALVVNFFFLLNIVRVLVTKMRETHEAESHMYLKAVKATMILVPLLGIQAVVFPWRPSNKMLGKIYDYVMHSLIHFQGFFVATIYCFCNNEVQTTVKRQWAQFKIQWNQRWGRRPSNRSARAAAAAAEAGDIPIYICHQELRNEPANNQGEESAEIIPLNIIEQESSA
As to the kind of experiment: cAMP accumulation. The note with it: cAMP maximal response, mean ± S.E.M., SEM. As for the experimental part:
(§1) Cells (2.5 × 10^4 cells/well) were seeded into 96-well plates and incubated overnight. Cells were stimulated with increasing concentrations of ligands for 30 min in the presence of IBMX. The liquid was discarded, changed to absolute ethanol and volatilized to dryness at room temperature. […] Data were normalized to the response of 100 μM forskolin.
(§2) Data were corrected for radioligand occupancy using the Cheng-Prusoff equation in Prism; as such data are reported as pKi. Emax and EC50 were estimated from concentration-response curves using with a 3-parameter logistic equation in Prism (v7). These values are a composite of functional affinity, efficacy and stimulus response coupling. […] Significance was accepted at P < 0.05.

For test [2], the target named is T2, hCTR F359A (Homo sapiens, UniProt P30988, F359A).
T2 construct: expressed in transfected cells
T2 sequence (P30988 25-474 F359A): T1 sequence (P30988 25-474 F356A) with A332F, F335A
As to the kind of experiment: cAMP accumulation. The note with it: cAMP maximal response, mean ± S.E.M., SEM. As for the experimental part:
as §1, §2
A general note: Cyclic AMP is a second messenger, typically raised through Gs and lowered through Gi signalling.

Test [3] has as its target T3, hCTR T280A (Homo sapiens, UniProt P30988, T280A).
T3 construct: expressed in transfected cells
T3 sequence (P30988 25-474 T280A): T1 sequence (P30988 25-474 F356A) with T256A, A332F
As to the kind of experiment: cAMP accumulation. The note with it: cAMP maximal response, mean ± S.E.M., SEM. As for the experimental part: as §1, §2

In test [4] the target is T4, hCTR V283A (Homo sapiens, UniProt P30988, V283A).
T4 construct: expressed in transfected cells
T4 sequence (P30988 25-474 V283A): T1 sequence (P30988 25-474 F356A) with V259A, A332F
As to the kind of experiment: cAMP accumulation. The note with it: cAMP maximal response, mean ± S.E.M., SEM. As for the experimental part:
as §1, §2

In test [5] the target is T5, hCTR L368A (Homo sapiens, UniProt P30988, L368A).
T5 construct: c-Myc (N); expressed in transfected cells
T5 sequence (P30988 25-474 L368A): T1 sequence (P30988 25-474 F356A) with A332F, L344A
Nature of the test: ERK1/2 phosphorylation. The settings on record: pERK maximal response, CV1-FlpIn cells, mean ± S.E.M. Summed up: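 EC50 and Emax values derive from three-parameter logistic curves and combine functional affinity, efficacy and stimulus-response coupling. Responses are normalized to 10% FBS (6 min).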

As to `CC(C)C[C@H](NC(=O)[C@H](CCCCN)NC(=O)CNC(=O)[C@H](CC(C)C)NC(=O)[C@@H](NC(=O)[C@@H]1CSSC[C@H](N)C(=O)N[C@@H](CO)C(=O)N[C@@H](CC(N)=O)C(=O)N[C@@H](CC(C)C)C(=O)N[C@@H](CO)C(=O)N[C@@H]([C@@H](C)O)C(=O)N1)C(C)C)C(=O)N[C@@H](CO)C(=O)N[C@@H](CCC(N)=O)C(=O)N[C@@H](CCC(=O)O)C(=O)N[C@@H](CC(C)C)C(=O)N[C@@H](Cc1c[nH]cn1)C(=O)N[C@@H](CCCCN)C(=O)N[C@@H](CC(C)C)C(=O)N[C@@H](CCC(N)=O)C(=O)N[C@H](C(=O)N[C@@H](Cc1ccc(O)cc1)C(=O)N1CCC[C@H]1C(=O)N[C@@H](CCCNC(=N)N)C(=O)N[C@H](C(=O)N[C@@H](CC(N)=O)C(=O)N[C@H](C(=O)NCC(=O)N[C@@H](CO)C(=O)NCC(=O)N[C@H](C(=O)N1CCC[C@H]1C(N)=O)[C@@H](C)O)[C@@H](C)O)[C@@H](C)O)[C@@H](C)O` [sCT], the Emax (usually the size of the effect at its maximum, as opposed to the concentration needed) is 100 ± 1% in test [1]; 84 ± 4% in test [2]; 107 ± 14% in test [3]; 116 ± 12% in test [4]; 140 ± 6% in test [5].

(Values after publication PMC5908784, “Extracellular loops 2 and 3 of the calcitonin receptor selectively modify agonist binding and efficacy” (Biochemical Pharmacology, 2018).)
